The values below come from patent US20230067910A1, “NOVEL COMPOUNDS FOR THE DIAGNOSIS, TREATMENT AND PREVENTION OF DISEASES ASSOCIATED WITH THE AGGREGATION OF ALPHA-SYNUCLEIN” (MODAG GMBH, priority 2019, published 2023).

Read-outs that look alike come from different tables or passages of the source.

In assay [1] the test system is H4 cells overexpressing alpha-synuclein hemi-Venus fusion constructs (V1S+SV2). The assay can be described thus: Cellular model of aggregated alpha-synuclein-dependent toxicity, V1S+SV2 H4 cells. The class given is cell-based. To be noted: 10 μM compound, 100 μM FeCl3, 0.75% DMSO, 48 h; for inhibition at 10 µM: read-out: Change in fraction of condensed nuclei (rel. to DMSO control) [%]. The protocol: (§1) To identify potential therapeutically useful effects, compounds were tested in two cellular models of aggregated alpha-synuclein-dependent toxicity in H4 cells. These cellular models allow for the inducible overexpression of alpha-synuclein hemi-Venus fusion constructs (V1S+SV2) or full-length alpha-synuclein (the model is described in detail in: Bartels M, Weckbecker D, Kuhn P H, Ryazanov S, Leonov A, Griesinger C, Lichtenthaler S F, Bötzel K, Giese A: Iron-mediated aggregation and toxicity in a novel neuronal cell culture model with inducible alpha-synuclein expression, Sci. Rep. 2019 Jun. 24; 9(1):9100). Moreover, addition of DMSO and FeCl3 promotes the aggregation of alpha-synuclein which is associated with an increase in cytotoxicity. The cell culture assay uses these effects by determining the change in the number of cells and the change in the percentage of condensed nuclei, which is indicative of apoptosis, in order to obtain information on which compounds show the most promising effects and thus might be therapeutically useful.
(§2) In these experiments, cells were incubated with 100 μM FeCl3 and 0.75% DMSO in the presence of 10 μM anle138c as a positive control, compounds 1 to 19 (10 μM), or DMSO as a negative control. After 48 h, the cells were imaged with an OPERA high-throughput imaging system and analyzed using Acapella software (Perkin Elmer). […] A reduction in the fraction of condensed nuclei (in the absence of a strong reduction in cell number) is indicative of a beneficial therapeutic effect.

Assay [2] concerns the target T1, alpha-synuclein (fibrils) (Homo sapiens, UniProt P37840).
T1 construct: made in house; host or cells: E. coli
The assay can be described thus: Competition binding assay, protocol 3a, reference ligand [3H]-compound 1, alpha-synuclein fibrils. To be noted: reference ligand [3H]-compound 1 (1 nM). The protocol:
(§3) Alpha-synuclein and tau46 were purified from E. coli according to established protocols (Nuscher B, et al., J. Biol. Chem., 2004; 279(21):21966-75), Aβ1-42 was obtained from rPeptide, Watkinsville, Ga., USA. Fibrils were prepared by aggregation of recombinant protein via constant agitation. In detail, 70 μM of alpha-synuclein mixed with 100 mM NaCl in 50 mM Tris, pH 7.0+0.02% NaN3 were incubated at 1,400 rpm, 37° C. for 96 h. 10 μM of tau46 were incubated with 0.03 mg/ml heparin in 50 mM Tris, pH=7.0 at 1,000 rpm, 37° C. for 72 h. Aβ1-42 was solved in 20 mM NaPi, pH=8.0+0.2 mM EDTA+0.02% NaN3 (Deeg A A, et al., Biochim. Biophys. Acta, 2015; 1850(9): 1884-90; Goedert M, et al. Nature, 1996; 383(6600): 550-3).
A fixed concentration of sonicated human recombinant αSYN (200 nM/well) or tau46 (208 nM/well) fibrils diluted in phosphate buffered saline (PBS) were incubated in low binding plates (96 well micro test plate, Ratiolab GmbH, Dreieich, Germany) together with 1 nM [^3H]-compound 1 and 1:4 serial dilutions of the cold compound of interest starting from 1 μM diluted in 50 mM Tris-base, 10% EtOH, 0.05% Tween20, pH 7.4. For the calculation of Ki values the KD value of compound 1 toward sonicated human recombinant αSYN fibrils was set to 3 nM.
Assay plates were incubated under agitation at 37° C. for 2 h covered by plastic foil (Resealable tape, PerkinElmer, Waltham, Mass., USA). Prior to harvesting, a filter (Printed filtermat B, PerkinElmer, Waltham, Mass., USA) was incubated with 5 mg/mL polyethylenimine (PEI, Poly(ethyleneimine) solution, Sigma Aldrich Chemie GmbH, Taufkirchen, Germany) at 4° C. for 30 min. After incubation, bound and free ligands were separated by vacuum filtration using a harvester (Filtermate harvester, PerkinElmer, Waltham, Mass., USA). The filter was washed three times with buffer cooled to 4° C. and subsequently dried in the microwave for 2 min at medium power. The filter was sealed in a plastic bag (Sample bag for MicroBeta®, PerkinElmer, Waltham, Mass., USA) together with added scintillator (BETAPLATE SCINT, PerkinElmer, Waltham, Mass., USA). Accumulation of tritium was counted in a liquid scintillation counter (Wallac MicroBeta® TriLux, 1450 LSC & Luminescence Counter, PerkinElmer, Waltham, Mass., USA) immediately. Radioactivity was plotted against the increasing tritium-labeled compound or cold compound concentrations. Data points were fitted using nonlinear regression analysis in GraphPad Prism (GraphPad Software, Inc., Version 7.03, La Jolla, Calif., USA).
(§4) The fibril competition assay provides Ki values. Ki is a quantitative measure that represents the concentration of the non-radioactive tested compound (competitor ligand) required to replace 50% of a reference compound, in this case [H]-compound 1 (1 nM) or [H]-compound 2 (1 nM), which is bound to the target structures (1 nM), in our case recombinant alpha-synuclein and tau46 fibrils. This assay is suitable for a screening of non-radioactive ligands.

In assay [3] the target is T2, alpha-synuclein (sonicated fibrils) (Homo sapiens, UniProt P37840).
T2 construct: made in house; host or cells: E. coli
The experiment in a line: Modified competition binding assay, protocol 3b, reference ligand [3H]-compound 2. To be noted: Table 5, reference ligand [3H]-compound 2 (1 nM). Here is the method: as §3
For competition binding experiments, a fixed concentration of recombinant αSYN fibrils (sonicated, 15 nM/well) was incubated with 1 nM [^3H]-compound 1 or [3H]-compound 2 and decreasing concentrations of a serial dilution of non-labeled competitor (serial dilution 1:4 or 1:3.5 or 1:3 providing the concentration ranges of non-labeled competitor 1 μM-[…] 1 μM-4 nM or 1 μM-[…], respectively) in 30 mM Tris-HCl, 10% ethanol, 0.05% Tween20, pH 7.4 in a total volume of 200 μL/well. Plates were incubated for 4.5 hours at RT covered by removable sealing tape (PerkinElmer, Waltham, Mass., USA).
Filtration and readout were performed as described for saturation binding assays. [^3H]-labeled ligand binding [in CMP] was plotted against increasing competitor concentrations and data points were fitted using non-linear regression analysis to calculate the IC50 and Ki values (GraphPad Software, Inc., Version 7.03, La Jolla (Calif.), USA). In the competition binding assay with sonicated recombinant αSYN fibrils, the calculation of Ki values was done based on KD values of 0.6 nM and 0.2 nM for compound 1 and compound 2, respectively.
as §4

In assay [4] the test system is H4 cells overexpressing full-length alpha-synuclein. The experiment in a line: Cellular model of aggregated alpha-synuclein-dependent toxicity, full-length alpha-synuclein H4 cells. The assay is classed as cell-based. To be noted: 10 μM compound, 100 μM FeCl3, 0.75% DMSO, 48 h; for inhibition at 10 µM: read-out: Change in fraction of condensed nuclei (rel. to DMSO control) [%]. Here is the method:
as §1, §2

The target of assay [5] is T2, alpha-synuclein (sonicated fibrils). The assay can be described thus: Modified competition binding assay, protocol 3b, reference ligand [3H]-compound 1. To be noted: reference ligand [3H]-compound 1 (1 nM). The protocol: Fibrils were prepared by aggregation of recombinant protein via constant agitation. In detail, 70 μM of alpha-synuclein mixed with 100 mM NaCl in 50 mM Tris, pH 7.0+0.02% NaN3 were incubated at 1,400 rpm, 37° C. for 96 h. 10 μM of tau46 were incubated with 0.03 mg/ml heparin in 50 mM Tris, pH=7.0 at 1,000 rpm, 37° C. for 72 h.
Plates were incubated for 4.5 hours at RT covered by removable sealing tape (PerkinElmer, Waltham, Mass., USA).
Filtration and readout were performed as described for saturation binding assays.
The fibril competition assay provides Ki values. […] This assay is suitable for a screening of non-radioactive ligands.

The mark [6] stands for this setting: Experiment A, read-out: Ki (nM) alpha-synuclein (fibrils).
The mark [7] stands for this setting: Experiment B, read-out: Ki (nM) alpha-synuclein (sonicated fibrils).
Setting [8] is: Table 4b, read-out: Ki (nM) alpha-synuclein (sonicated fibrils).
[9] abbreviates: Table 6 comparison series, read-out: Ki (nM), sonicated alpha-synuclein fibrils.

On to `CN(C)c1ncc(-c2cc(-c3cccc(Br)c3)[nH]n2)cn1` [Compound 5, 5-[5-(3-bromophenyl)-1H-pyrazol-3-yl]-N,N-dimethylpyrimidin-2-amine], for which the “Change in cell number (rel. to DMSO control) [%]” value (“Change in cell number … [%]” for short) in assay [1] is given as −12.4%; in assay [4], −14.6%. Besides, the inhibition at 10 µM in assay [1] worked out at 27.3%; in assay [4], 34.2%. In addition, the inhibition constant (Ki) (commonly a dissociation constant, usually derived from enzyme kinetics or from competition with a known ligand) in assay [2] (setting [6]) is 27 nM; in assay [2] (setting [7]), more than 60 nM; in assay [3], 13 nM.
Turning to `CN(C)c1ncc(-c2cc(-c3ccnc(Br)c3)[nH]n2)cn1` [Compound 6, 5-[5-(2-bromopyridin-4-yl)-1H-pyrazol-3-yl]-N,N-dimethylpyrimidin-2-amine], the “Change in cell number … [%]” value in assay [1] was −34.0%; in assay [4] it was −31.0%. The inhibition at 10 µM is -53.6% in assay [1] and -5.4% in assay [4]. Besides, the Ki in assay [2] (setting [6]) is 24 nM; in assay [2] (setting [7]) it was more than 300 nM; in assay [3] it was 8.9 nM.
With `Nc1ccc(-c2cc(-c3ccnc(Br)c3)[nH]n2)cc1` [Compound 7, 4-[5-(2-bromopyridin-4-yl)-1H-pyrazol-3-yl]aniline], the “Change in cell number … [%]” value in assay [1] is −30.8%; in assay [4], −37.8%. In addition, the figures for the inhibition at 10 µM in assay [1] and in assay [4] were 46.1% and 62.5%, respectively.
For the compound `CN(C)c1ncc(-c2cc(-c3ccnc(F)c3)[nH]n2)cn1` [Compound 8, 5-[5-(2-fluoropyridin-4-yl)-1H-pyrazol-3-yl]-N,N-dimethylpyrimidin-2-amine], the “Change in cell number … [%]” value was −4.5% in assay [1] and −5.7% in assay [4]. In addition, the inhibition at 10 µM in assay [1] is -14.2%; in assay [4], -10.7%. Further, the Ki came to 43 nM in assay [2] (setting [6]) and 9.9 nM in assay [3].
As to `Fc1cccc(-c2cc(-c3ccc4c(c3)OCO4)n[nH]2)n1` [Compound 11, 2-[3-(1,3-benzodioxol-5-yl)-1H-pyrazol-5-yl]-6-fluoropyridine], the “Change in cell number … [%]” value in assay [1] is listed as −17.4%; in assay [4], −20.0%. For the same compound, the figures for the inhibition at 10 µM in assay [1] and in assay [4] were -123% and -13.7%, respectively. The Ki in assay [3] turned out to be 7.4 nM.
Consider `Fc1cncc(-c2cc(-c3ccc4c(c3)OCO4)n[nH]2)c1` [Compound 13, 3-[3-(1,3-benzodioxol-5-yl)-1H-pyrazol-5-yl]-5-fluoropyridine], for which, in assay [1], the “Change in cell number … [%]” value is on record as −6.1% and the inhibition at 10 µM was -46%. Moreover, the Ki in assay [3] was found to be 189 nM. For the same compound, in assay [4], the “Change in cell number … [%]” value is −18.1% and the inhibition at 10 µM is 55.5%.
Taken in the same sequence, the figures for `Clc1cc(-c2cc(-c3ccc4c(c3)OCO4)n[nH]2)ccn1` [Compound 14, 4-[3-(1,3-benzodioxol-5-yl)-1H-pyrazol-5-yl]-2-chloropyridine] were −21.9%, -61%, 1.3 nM, −32.0% and 47.3%.
`Cn1nc(-c2ccnc(Br)c2)cc1-c1ccc2c(c1)OCO2` [Compound 19, 4-[5-(1,3-benzodioxol-5-yl)-1-methyl-1H-pyrazol-3-yl]-2-bromopyridine]: in assay [1], the “Change in cell number … [%]” value is −5.7% and the inhibition at 10 µM is -3.2%. Also, in assay [4], the “Change in cell number … [%]” value was −30.3% and the inhibition at 10 µM was 13.2%.
As for `Brc1cccc(-c2cc(-c3cc4c(cn3)OCO4)n[nH]2)c1` [Compound 20, 6-[3-(3-bromophenyl)-1H-pyrazol-5-yl]-1,3-dioxolo[4,5-c]pyridine], the Ki in assay [3] was 5.5 nM; in assay [5] (setting [8]), 3.1 nM.
Turning to `FC1CN(c2ccc(-c3cc(-c4ccnc(Cl)c4)[nH]n3)cc2)C1` [Compound 55, 2-chloro-4-{3-[4-(3-fluoroazetidin-1-yl)phenyl]-1H-pyrazol-5-yl}pyridine], the Ki in assay [3] was 1.2 nM.
Regarding `CNc1ccc(-c2cc(-c3cncc(Br)c3)[nH]n2)cc1` [Compound 56, 4-[5-(5-bromopyridin-3-yl)-1H-pyrazol-3-yl]-N-methylaniline], the Ki in assay [3] was 3.3 nM; in assay [5] (setting [8]), 2.6 nM.
The matching figures for `CNc1ccc(-c2cc(-c3cc(Br)ccn3)[nH]n2)cc1` [Compound 57, 4-[5-(4-bromopyridin-2-yl)-1H-pyrazol-3-yl]-N-methylaniline]: 2.8 nM and 3.3 nM.
For the compound `CNc1ccc(-c2cc(-c3cccc(Br)c3)[nH]n2)cc1` [Compound 64, reference compound], in assay [5] (setting [9]), the Ki came out at 3.4 nM.
For the compound `CN(C)c1ccc(-c2cc(-c3cccc(Br)c3)[nH]n2)cc1` [Compound 65, reference compound], in assay [5] (setting [9]), the Ki is 1.9 nM.
